Here are results for three compounds from patent publication US20260306494A1, “LIQUID AND SOLID COMPOSITIONS OF IMIPRIDONE DERIVATIVES” (INSTITUT GUSTAVE ROUSSY, priority 2023, published 2026).

Data set [1] relates to recurrent H3K28M DMG. The conditions noted are these: human, in vivo; cited from earlier work.
Data set [2] is described as follows: physchem. The conditions noted are these: water, solubility in water.
The conditions of data set [3]: in vivo; cited from earlier work.

For `Cc1ccccc1CN1C(=O)C2=C(CCN(Cc3ccccc3)C2)N2CCN=C12` [ONC201, 7-Benzyl-4-(2-methylbenzyl)-1,2,6,7,8,9-hexahydroimidazo[1,2-a]pyrido[3,4-e]pyrimidin-5 (4H)-one], the response of patients entry in data set [1] is given as “sustained response”.

With `Cc1ccccc1CN1C(=O)C2=C(CCN(Cc3ccccc3)C2)N2CCN=C12` [ONC201.2HCl], the solubility (usually how much of the substance goes into solution per volume) in data set [2] was determined as 41.4 mg/mL.

As for `NC(=O)c1cccnc1` [Nicotinamide], the “NOAEL (No Observed Adverse Effect Level)” value in data set [3] is reported as “around 200 mg/kg bw”.
